Consider twelve molecules from patent publication US20110183978A1, “Phenylpyri(mi)dinylazoles” (Bayer CropScience AG, priority 2009, published 2011).

Structures can show the parent of a compound that is named as a salt. Where two headings read alike, the source gives them in different places.

Data set [1] is described as follows: determination of the log P values by HPLC on a reverse phase column (C18), EEC-Directive 79/831 Annex V.A8.
The subject of the next data set is Fusarium graminearum. In words: microbe, parasite or virus in culture. The format is cell-based.
The subject of a further data set is Alternaria solani. In words: Example M: in vivo test on Alternaria solani (leaf blotch disease/tomato/protective). As to conditions: 168 h, tomato, protective, 500 ppm active substance, assessed 7 days after inoculation, read-out: % Wirkungsgrad (activity level). An outline of the steps:
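Protective test: young tomato plants sprayed with active substance (in DMF with alkylaryl polyglycol ether emulsifier, diluted in water) at the stated dosage, then inoculated with Alternaria solani. Disease assessed 7 days after inoculation.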

The subject of a further data set is Peronospora parasitica. The data set is described as follows: Example A: in vivo test on Peronospora parasitica (downy mildew on white cabbage). Particulars: Hyaloperonospora parasitica, 120 h, cabbage plants sprayed 24 hours before inoculation, scored after 5 days, read-out: % Wirkungsgrad. An outline of the steps:
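Cabbage plants (Eminence) at cotyledon stage sprayed with aqueous compound suspension (acetone/Tween/DMSO, diluted with water), then inoculated 24 h later with P. parasitica spores at 50,000 spores/ml. After 5 days in moist atmosphere at ca. 20 °C, disease scored against untreated sprayed controls.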

The subject of a further data set is Puccinia recondita. The data set is described as follows: Example F: in vivo test on Puccinia recondita (wheat brown rust). Particulars: 240 h, wheat plants sprayed 24 hours before inoculation, scored after 10 days, read-out: % Wirkungsgrad. As for the experimental part: In Vivo Test on Puccinia Recondita (Wheat Brown Rust) An aqueous suspension of the active substance was prepared by homogenization of a mixture of acetone/Tween/dimethyl sulphoxide and subsequent dilution with water to the desired concentration. Wheat plants (variety: Scipion) are sown in cultivation dishes on a peat-pozzolanic earth substrate (50/50) at 12° C. and sprayed at the first-leaf stage (10 cm size) with the aqueous suspension described above. As a control, plants are sprayed with an aqueous solution with no active substance. After 24 hours the plants are inoculated by spraying with an aqueous suspension of Puccinia recondita spores (100,000 spores per ml). The spores are derived from a 10 day-old infected wheat crop and are suspended in water with 2.5 ml/l Tween. […] After 10 days they are scored in comparison with the control plants.

The next data set concerns Pyricularia grisea. The format is in vivo. As to conditions: 500 ppm; rice plants sprayed 24 hours before inoculation; scored after 6 days.
The subject of data set [2] is Sphaerotheca fuliginea. The data set is described as follows: Example L: in vivo test on Sphaerotheca fuliginea (powdery mildew on cucumber/protective). Particulars: Podosphaera fuliginea, 168 h, cucumber, protective, assessment 7 days after inoculation, read-out: % Wirkungsgrad. An outline of the steps: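 Young cucumber plants sprayed at stated dosage with compound in DMF/alkylaryl polyglycol ether emulsifier diluted in water; inoculated with S. fuliginea spores one day later. Kept in greenhouse at 70% relative humidity, 23° C; protective activity assessed 7 days after inoculation.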

The nature of another data set: physchem. As to conditions: LogPA (logP of the stated pure compound or, in a mixture, of the main isomer, 1-substituted 3-aryl-1H-pyrazole).
In data set [3] the test system is Sphaerotheca fuliginea. In words: Example D: in vivo test on Sphaerotheca fuliginea (powdery mildew on cucumber). As to conditions: Podosphaera fuliginea, 288 h, cucumber plants sprayed 24 hours before inoculation, scored after 12 days, read-out: % Wirkungsgrad. An outline of the steps: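 Cucumber plants at cotyledon stage Z10 were sprayed with the compound suspended in acetone/Tween/DMSO diluted with water. After 24 hours they were inoculated with Sphaerotheca fuliginea spores (100,000/ml) and incubated at ca. 20/25° C. and 60/70% RH. Disease was scored after 12 days against untreated sprayed controls.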

In data set [4] the test system is Mycosphaerella graminicola. In words: Example G: in vivo test on Mycosphaerella graminicola (wheat leaf blotch disease). As to conditions: Zymoseptoria tritici, wheat plants sprayed 24 hours before inoculation, scored after 21 to 28 days, read-out: % Wirkungsgrad. An outline of the steps:
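Scipion wheat at first-leaf stage (10 cm) was sprayed with aqueous active-substance suspension, then inoculated 24 hours later with Mycosphaerella graminicola spores (500,000 spores per ml) from 7 day-old culture. Disease was scored after 21 to 28 days against untreated sprayed controls.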

Another data set relates to Botrytis cinerea. In words: Example B: in vivo test on Botrytis cinerea (grey mould on cucumbers). Particulars: cucumber plants sprayed 24 hours before inoculation, scored after 5-7 days, read-out: % Wirkungsgrad. How it is done:
In Vivo Test on Botrytis Cinerea (Grey Mould on Cucumbers) An aqueous suspension of the active substance was prepared by homogenization of a mixture of acetone/Tween/dimethyl sulphoxide and subsequent dilution with water to the desired concentration. Cucumber plants (variety: Vert petit de Paris) are sown in cultivation dishes on a peat-pozzolanic earth substrate (50/50) at 18-20° C. and sprayed at the cotyledon stage Z11 with the aqueous suspension described above. As a control, plants are sprayed with an aqueous solution with no active substance. […] The spores are derived from a 15 day-old culture which are suspended in the following nutrient solution: • 20 g/l gelatine • 50 g/l D-fructose • 2 g/l NH4NO3 • 1 g/l KH2PO4 The inoculated cucumber plants are kept for 5-7 days in a climatic chamber at […] After 5-7 days they are scored in comparison with the control plants.

In another data set the test system is Alternaria brassicae. In words: Example C: in vivo test on Alternaria brassicae (leaf spot disease on radishes). As to conditions: 500 ppm; radish plants sprayed 24 hours before inoculation; scored after 6-7 days. How it is done: In Vivo Test on Alternaria Brassicae (Leaf Spot Disease on Radishes) An aqueous suspension of the active substance was prepared by homogenization of a mixture of acetone/Tween/dimethyl sulphoxide and subsequent dilution with water to the desired concentration. Radish plants (variety: Pernot) are sown in cultivation dishes on a peat-pozzolanic earth substrate (50/50) at 18-20° C. and sprayed at the cotyledon stage with the aqueous suspension described above. As a control, plants are sprayed with an aqueous solution with no active substance. After 24 hours, the plants are inoculated by spraying with an aqueous suspension of Alternaria brassicae spores (40,000 spores per ml). The spores are derived from a 12 to 13 day-old culture. The inoculated radish plants are incubated for 6-7 days at ca. 18° C. in a humid atmosphere. After 6-7 days they are scored in comparison with the control plants.

For data set [5] the following is noted: pH 2.3.

The molecule `CCC[CH2][Sn]([CH2]CCC)([CH2]CCC)[c]1c(-c2ccncc2)cnn1C1CCCCO1` (stereo not shown) [[XI-1], 4-[1-(Tetrahydro-2H-pyran-2-yl)-5-(tributylstannyl)-1H-pyrazol-4-yl]pyridine] came in with a chromatographic logP in [1] (pH 2.7) of 5.09.

Take `CCOC(=O)Nc1cc(-c2cn(CC3CC3(Cl)Cl)nc2-c2ccc(F)cc2)ccn1` (stereo not shown) [Compound 264]: the inhibition at 50 µM was determined as 17% in the data set with Fusarium graminearum (72 h, read-out: % Inhibition des Pilzwachstums bei 50 μM) and 99% in the data set on Fusarium graminearum (168 h, read-out: % Inhibition der DON/AcDON produktion bei 50 μM). Besides, the chromatographic logP in [1] is 3.37.

For the molecule `CCOC(=O)Nc1cc(-c2cn(CC(F)F)nc2-c2ccc(F)cc2)ccn1` [Compound 241], the chromatographic logP in [1] was 2.45. In addition, in the data set on Alternaria solani, the pest or weed control at 500 ppm was 94%.

As to `CCC(C)n1cc(-c2ccncc2)c(-c2ccc(F)cc2)n1` (stereo not shown) [Compound 91], the pest or weed control at 500 ppm with Peronospora parasitica was determined as 89%; in the data set with Puccinia recondita, 94%; with Sphaerotheca fuliginea [2], 100%; with Alternaria solani, 95%; in the data set on Sphaerotheca fuliginea [3], 88%. Moreover, the “% Activity level” value in the data set with Pyricularia grisea came to 75%. For the same molecule, the chromatographic logP in “physchem” is 1.5.

`c1cc(-c2cnn(C3CCCCO3)c2)ccn1` (stereo not shown) [[XII-1], 4-[1-(Tetrahydro-2H-pyran-2-yl)-1H-pyrazol-4-yl]pyridine] gave a chromatographic logP in data set [1] (pH 2.7) of 0.38.

With `Fc1ccc(-c2n[nH]cc2-c2ccncc2)cc1` [[IX-1], 4-[3-(4-Fluorophenyl)-1H-pyrazol-4-yl]pyridine hydrochloride], the chromatographic logP in [1] (pH 2.7) was found to be 0.65.

In the case of `CC(C)Cn1ncc(-c2ccncc2)c1-c1c(F)cccc1F` [Compound 2], the pest or weed control at 500 ppm worked out at 85% in the data set on Peronospora parasitica; 98% in data set [4]; 74% in the data set with Botrytis cinerea; 100% in the data set with Alternaria solani; 93% in the data set on Sphaerotheca fuliginea [3]. In addition, in the data set with Alternaria brassicae, the “% Activity level” value stood at 77%. In addition, in “physchem”, the chromatographic logP came to 1.86.

`CCC(C)n1cc(-c2ccncc2)c(-c2c(F)cccc2F)n1` (stereo not shown) [Compound 3]: the values for the pest or weed control at 500 ppm (with Peronospora parasitica; in data set [4]; in the data set with Sphaerotheca fuliginea [3]) were 97%, 95% and 93%, respectively. The “% Activity level” value in the data set with Alternaria brassicae came out at 88%. Further, the chromatographic logP in the data set “physchem” was determined as 1.82.

With `CC(=O)Nc1ccc(-c2c(-c3ccncc3)cnn2C2CCCCO2)cc1` (stereo not shown) [[X-13]], the “LogP (pH 2.3)” value in [5] is listed as 0.97.

Regarding `CC(C)n1ncc(-c2ccncc2)c1-c1c(F)cccc1F` [Compound 10], the pest or weed control at 500 ppm was 85% in the data set with Peronospora parasitica, 95% in data set [4], 73% with Botrytis cinerea and 80% with Sphaerotheca fuliginea [3]. Further, the “% Activity level” value in the data set with Alternaria brassicae is given as 85%. For the same molecule, the chromatographic logP in “physchem” stood at 1.54.

Consider `Cc1cc(F)ccc1-c1c(-c2ccncc2)cnn1C1CCCCO1` (stereo not shown) [[X-5], 4-[5-(4-fluoro-2-methylphenyl)-1-(tetrahydro-2H-pyran-2-yl)-1H-pyrazol-4-yl]pyrid], for which, in data set [5], the “LogP (pH 2.3)” value stood at 1.40.

Regarding `CC(C)Cn1cc(-c2ccnc3c2C(C)(C)C(=O)N3C)c(-c2ccc(F)cc2)n1` [Compound 148], the “% Activity level” value in the data set on Pyricularia grisea turned out to be 71%. For the same molecule, the chromatographic logP in “physchem” is 3.68.

Usually chromatographic logP stands for lipophilicity estimated from chromatographic retention.
